From patent US20240190849A1, “AMINOPYRIMIDINE COMPOUNDS AND METHODS OF THEIR USE” (TYRA BIOSCIENCES, INC., priority 2021, published 2024)

What was measured:
[1] = target: T1, FGFR3 (Homo sapiens, UniProt P22607); experiment: Kinase binding assay (kinase-tagged T7 phage, affinity beads, qPCR readout), FGFR3; conditions: FGFR binding data
T1 construct: made in house; host or cells: E. coli derived from BL21, infected with T7 phage
In short: (§1)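 Competition binding: kinases displaced from biotinylated-ligand streptavidin beads by test compound in binding buffer (20% SeaBlock, 0.17×PBS, 0.05% Tween 20, 6 mM DTT), 1 hour at room temperature, 0.9% DMSO. Bead-bound kinase eluted with 0.5 μM free ligand, quantified by qPCR. Kd from 11-point 3-fold dilutions, Hill slope fixed at −1.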

[2] = test system: RT112/84 (Bladder Cancer), FGFR3-TACC3 fusion; experiment: Cancer cell viability assay (Cell Titer-Glo), RT112/84; type: cell-based; conditions: Homo sapiens, RT112/84 cells, 72 hours
In short: (§2)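 Cells seeded at 10,000/well in RPMI1640 with 10% FBS, then exposed 72 h at 37° C. to a 9-point 10-fold dilution series from 30 μM, in triplicate. Viability read as ATP luminescence (CellTiter-Glo 2.0) as percent of DMSO control; IC50 from 4-parameter sigmoidal fit.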

[3] = target: T2, FGFR3 (V555M) (Homo sapiens, UniProt P22607, V555M); experiment: Kinase binding assay (kinase-tagged T7 phage, affinity beads, qPCR readout), FGFR3 (V555M); conditions: FGFR binding data
T2 construct: made in house; host or cells: E. coli derived from BL21, infected with T7 phage
In short: as §1

[4] = target: T3, FGFR1 (Homo sapiens, UniProt P11362); experiment: Kinase binding assay (kinase-tagged T7 phage, affinity beads, qPCR readout), FGFR1; conditions: FGFR binding data
T3 construct: made in house; host or cells: E. coli derived from BL21, infected with T7 phage
In short: as §1

[5] = test system: UM-UC-14 (Bladder Cancer), FGFR3(S249C); experiment: Cancer cell viability assay (Cell Titer-Glo), UM-UC-14; type: cell-based; conditions: UMUC14, UM-UC-14 cells, 72 hours
In short: as §2

[6] = target: T4, FGFR2 (Homo sapiens, UniProt P21802); experiment: Kinase binding assay (kinase-tagged T7 phage, affinity beads, qPCR readout), FGFR2; conditions: FGFR binding data
T4 construct: made in house; host or cells: E. coli derived from BL21, infected with T7 phage
In short: as §1

[7] = test system: KG-1 (Acute Myeloid Leukemia), FGFR1OP2-FGFR1 fusion; experiment: Cancer cell viability assay (Cell Titer-Glo), KG-1; type: cell-based; conditions: Homo sapiens, KG-1 cells, 72 hours
From the text: RT112/84, UM-UC-14, SNU-16 and KG-1 Cancer Cell Line Cell Viability Assays
To detect the change of intracellular ATP by Cell Titer-Glo@ and to evaluate the inhibitory effect of the compounds on cancer cell lines by determining the in vitro IC50 value of the compounds.
Cell Titer-Glo@ 2.0 Luminescent cell viability assay reagent was purchased from Promega (Madison, WI). RT112/84, SNU-16, and KG-1 cell lines were purchased from American Type Culture Collection (Manassas, VA). UM-UC-14 cell line was purchased from Sigma (St. Louis, MO). RT112/84, UM-UC-14, SNU-16, and KG-1 cells were cultured in RPMI1640 media supplemented with 10% fetal bovine serum. Cultures were maintained at 37° C. in a humidified atmosphere of 5% CO2 and 95% air.
Cell Viability Assay Procedure: Cells were plated in 96-well clear bottom/white plates (Corning #3903) at 10,000 cells/well in 100 μl of media, incubated overnight. The next day, test compound DMSO stock solutions were made at 10 mM and 2 μM final concentration. Compounds were then added to cells in a 9-dose, […] dilution series starting at 30 μM with an HP 300e Digital Dispenser (each dose was applied in triplicate). DMSO was backfilled to each well up to 301 nL total volume of test compound+DMSO, and a total of 301 nL DMSO was added to a control/no test compound well in triplicate. The cells in cell culture plates were incubated with the compounds at 37° C. and 5% CO2 for 72 hours. Then 50 μl of Cell Titer Glo 2.0 reagent was added to each well of the cell culture plates. The contents were covered from light and mixed on an orbital shaker at room temperature for 10 min. Luminescence was recorded by a Synergy H1 Microplate Reader (Biotek, Winooski, VT). Cells were assessed as a percentage of DMSO only treated control cells. Curves were plotted and IC50 values were calculated using the GraphPad Prism 8 program based on a sigmoidal dose-response equation (4 parameter).

[8] = test system: SNU-16 (Gastric Carcinoma), FGFR2 amplification; experiment: Cancer cell viability assay (Cell Titer-Glo), SNU-16; type: cell-based; conditions: Homo sapiens, SNU-16 cells, 72 hours, read-out: SNU16 FGFR2 (IC50 nM)
In short: as §2

T4 sequence (P21802 22-821): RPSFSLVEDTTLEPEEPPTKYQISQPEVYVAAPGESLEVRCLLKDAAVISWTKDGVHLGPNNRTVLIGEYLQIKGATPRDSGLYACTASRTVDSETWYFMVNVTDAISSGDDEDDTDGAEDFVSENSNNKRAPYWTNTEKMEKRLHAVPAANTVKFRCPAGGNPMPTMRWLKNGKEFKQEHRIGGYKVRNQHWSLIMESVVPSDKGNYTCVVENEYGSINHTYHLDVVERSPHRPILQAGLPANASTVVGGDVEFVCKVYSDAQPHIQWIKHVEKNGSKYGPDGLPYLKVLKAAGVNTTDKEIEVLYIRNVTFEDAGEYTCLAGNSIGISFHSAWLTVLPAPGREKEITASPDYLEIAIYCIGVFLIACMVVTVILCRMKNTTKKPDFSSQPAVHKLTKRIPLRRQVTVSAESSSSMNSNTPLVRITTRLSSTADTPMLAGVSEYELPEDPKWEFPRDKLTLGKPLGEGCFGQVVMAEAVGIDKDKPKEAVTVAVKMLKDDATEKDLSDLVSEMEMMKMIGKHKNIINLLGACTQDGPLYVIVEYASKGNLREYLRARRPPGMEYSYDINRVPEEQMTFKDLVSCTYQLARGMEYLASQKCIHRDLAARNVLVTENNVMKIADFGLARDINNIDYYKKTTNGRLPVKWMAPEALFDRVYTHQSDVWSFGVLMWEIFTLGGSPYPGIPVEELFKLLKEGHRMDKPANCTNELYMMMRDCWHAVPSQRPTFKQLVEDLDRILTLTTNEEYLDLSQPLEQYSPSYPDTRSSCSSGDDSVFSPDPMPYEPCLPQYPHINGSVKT
T2 sequence (P22607 23-806 V555M): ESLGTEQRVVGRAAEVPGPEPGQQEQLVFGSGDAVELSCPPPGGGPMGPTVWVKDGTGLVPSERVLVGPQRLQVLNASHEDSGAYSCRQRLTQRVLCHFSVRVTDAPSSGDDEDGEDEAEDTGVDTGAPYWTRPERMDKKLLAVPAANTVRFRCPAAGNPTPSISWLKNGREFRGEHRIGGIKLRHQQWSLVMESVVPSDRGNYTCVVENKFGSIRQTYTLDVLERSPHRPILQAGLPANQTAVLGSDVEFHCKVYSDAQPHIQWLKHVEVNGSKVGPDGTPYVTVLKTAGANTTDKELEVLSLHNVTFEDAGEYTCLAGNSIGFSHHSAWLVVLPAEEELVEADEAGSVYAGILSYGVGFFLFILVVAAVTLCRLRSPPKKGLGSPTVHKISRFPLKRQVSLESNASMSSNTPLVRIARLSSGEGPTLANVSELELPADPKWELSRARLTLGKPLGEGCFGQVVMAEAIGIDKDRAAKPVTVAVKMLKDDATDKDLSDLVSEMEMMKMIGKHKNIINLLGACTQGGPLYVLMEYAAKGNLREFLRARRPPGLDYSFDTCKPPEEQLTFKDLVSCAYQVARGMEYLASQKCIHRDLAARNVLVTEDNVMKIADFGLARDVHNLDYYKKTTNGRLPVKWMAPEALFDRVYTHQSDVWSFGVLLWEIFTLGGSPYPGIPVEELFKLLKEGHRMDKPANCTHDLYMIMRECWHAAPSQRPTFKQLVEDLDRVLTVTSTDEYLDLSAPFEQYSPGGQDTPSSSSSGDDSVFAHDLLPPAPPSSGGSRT
T1 sequence (P22607 23-806): as the sequence (P22607 23-806 V555M) above, with M533V counted along it
T3 sequence (P11362 22-822): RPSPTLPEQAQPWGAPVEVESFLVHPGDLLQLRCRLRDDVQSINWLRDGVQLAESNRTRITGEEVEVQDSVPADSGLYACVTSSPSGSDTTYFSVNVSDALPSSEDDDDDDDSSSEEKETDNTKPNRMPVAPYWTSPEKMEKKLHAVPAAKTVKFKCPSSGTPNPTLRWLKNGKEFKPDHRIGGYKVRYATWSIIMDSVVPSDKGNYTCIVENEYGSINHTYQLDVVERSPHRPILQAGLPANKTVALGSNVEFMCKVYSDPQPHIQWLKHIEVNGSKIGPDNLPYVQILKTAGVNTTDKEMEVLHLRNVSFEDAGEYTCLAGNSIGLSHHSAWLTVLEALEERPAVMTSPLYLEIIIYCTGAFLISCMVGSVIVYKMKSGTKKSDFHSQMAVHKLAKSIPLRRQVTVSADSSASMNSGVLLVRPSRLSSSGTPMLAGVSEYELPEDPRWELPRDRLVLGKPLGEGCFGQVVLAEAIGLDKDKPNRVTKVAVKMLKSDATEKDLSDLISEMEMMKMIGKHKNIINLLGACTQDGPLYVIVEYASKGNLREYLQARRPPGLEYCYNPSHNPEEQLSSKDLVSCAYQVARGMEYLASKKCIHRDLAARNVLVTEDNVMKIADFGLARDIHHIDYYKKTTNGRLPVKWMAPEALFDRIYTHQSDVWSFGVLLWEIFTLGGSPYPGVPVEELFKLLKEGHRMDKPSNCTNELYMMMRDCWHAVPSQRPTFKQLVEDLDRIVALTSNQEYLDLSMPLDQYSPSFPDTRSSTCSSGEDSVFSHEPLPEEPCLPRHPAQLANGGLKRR

C=CC(=O)Nc1ccc2c(c1)c(C)cn2-c1ccnc(Nc2ccc(N3CCOCC3)cc2)n1 [Example 54, N-[3-Methyl-1-[2-(4-morpholinoanilino)pyrimidin-4-yl]indol-5-yl]prop-2-enamide]
0.1 to 100 nM: Kd [1] | IC50 [2] | Kd [3] | Kd [4] | IC50 [5] | Kd [6] | IC50 [7] | IC50 [8]

C=CC(=O)Nc1ccc2c(c1)c(C)cn2-c1nc(Nc2cnn(C)c2)ncc1F [Example 61, N-[1-[5-fluoro-2-[(1-methylpyrazol-4-yl)amino]pyrimidin-4-yl]-3-methyl-indol-5-yl]prop-2-enamide]
0.1 to 100 nM: Kd [1] | IC50 [2] | Kd [3] | Kd [4] | IC50 [5] | Kd [6] | IC50 [7] | IC50 [8]

C=CC(=O)Nc1ccc2c(c1)c(C)cn2-c1nc(Nc2cc(C)nn2C)ncc1C [Example 64, N-[1-[2-[(2,5-dimethylpyrazol-3-yl)amino]-5-methyl-pyrimidin-4-yl]-3-methyl-indol-5-yl]prop-2-enamide]
0.1 to 100 nM: Kd [1] | IC50 [2] | Kd [3] | Kd [4] | IC50 [5] | Kd [6] | IC50 [7] | IC50 [8]

C=CC(=O)Nc1ccc2c(-c3ccnc(Nc4cnn(CCO)c4)n3)cn(C)c2c1 [Example 106, N-[3-[2-[[1-(2-hydroxyethyl)pyrazol-4-yl]amino]pyrimidin-4-yl]-1-methyl-indol-6-yl]prop-2-enamide]
0.1 to 100 nM: Kd [1] | IC50 [2] | Kd [3] | Kd [4] | IC50 [5] | Kd [6] | IC50 [7] | IC50 [8]
